The source of these data is PubChem BioAssay (NCI).

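Compound exposure: 48 hours, 5 concentrations, 96-well plates. TGI marks complete inhibition of growth.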

Holding throughout (experiment): NCI anticancer screen, dose series, 48 h
Assay [1] deals with M14 melanoma.
For assay [2], the system named is OVCAR-5 ovarian.
Assay [3] deals with RPMI-8226 leukemia.
In assay [4] the test system is A498 renal.
In assay [5] the test system is COLO 205 colon.
Assay [6] relates to HCT-116 colon.
Assay [7] has as its system HCT-15 colon.
Assay [8] deals with HL-60(TB) leukemia.
The test system of assay [9] is SNB-19 CNS.
For assay [10], the system named is PC-3 prostate.

`c1ccc(C2N3CCCCC3[C@@H]3c4[nH]c5ccccc5c4CCN23)cc1` (stereo not given in full): the TGI was above 100 µM in [1]; above 100 µM in assay [2]; above 100 µM in assay [3]; 63.6 µM in assay [4]; 48.2 µM in assay [5]; above 100 µM in assay [6]. The TGI is above 100 µM in assay [7], 48.8 µM in [8] and above 100 µM in [9].
On to `Cc1cc(NCCCCCCNc2cc(C)nc3ccc(Cl)cc23)c2cc(Cl)ccc2n1`, for which the TGI in assay [1] was above 100 µM; in [2] it was 34.7 µM; in [3], above 100 µM; in assay [4] it was above 100 µM; in assay [5] it was 32.3 µM; in assay [6] it was 30.8 µM. For the same compound, the values for the TGI in assay [7], in [8] and in assay [9] were 33.1 µM, 47.8 µM and 66.8 µM, respectively.
With `O=C(Nc1c(Cl)cc([N+](=O)[O-])cc1Cl)/C(=N\Nc1cccc(Cl)c1)c1c(O)c2ccccc2oc1=O`, the TGI in assay [2] is above 100 µM; in assay [3], above 100 µM; in assay [4] it was 91.4 µM; in assay [5] it was above 100 µM; in assay [6], above 100 µM; in assay [8], above 100 µM. In assay [9], this compound had a TGI above 100 µM.
Regarding `CSc1ccc2c(cc1=O)[C@@H](NC(=O)c1ccc(F)cc1)CCc1cc(O)c(O)c(O)c1-2`, the TGI in assay [1], in assay [2], in assay [3], in assay [4], in assay [5] and in [6] was above 100 µM throughout. The TGI in assay [7], in [8] and in assay [9] was above 100 µM each time.
Consider `CCSc1nc2n(c(=S)n1)CCN2C`, for which the TGI in assay [1] turned out to be 31.5 µM; in assay [2] it was 42.7 µM; in [3], 61.7 µM; in assay [4], 47.5 µM; in assay [6], 33.7 µM; in assay [7], 40.6 µM. Also, the TGI worked out at 46.1 µM in assay [8] and 37.8 µM in assay [9].
Turning to `C/C(=N\Nc1nc2ccccc2o1)c1ccncn1`, the TGI is 36.6 µM in assay [10]; above 100 µM in assay [2]; 10.7 µM in [4]; above 51.3 µM in assay [5]; above 33.6 µM in assay [6]; above 58.1 µM in assay [7]. Also, the TGI is 0.0585 µM in assay [8] and above 100 µM in assay [9].
For `C/C(=N/N)c1ccc2[nH]c3c(C)cc([N+](=O)[O-])c(C)c3c2c1`, the TGI in [1] was 30.4 µM; in [3] it was 64 µM; in assay [5] it was 25.5 µM; in assay [6], 17.8 µM; in assay [7] it was 24.7 µM; in assay [8] it was above 100 µM. The TGI in assay [9] is 31.8 µM.
Turning to `CCC/C(=N\NC(=O)c1cc2ccccc2cc1O)C(CC)C(=O)CCC(=O)N(Cc1ccccc1)Cc1ccccc1` (stereo not given), the TGI in [1] is above 100 µM; in assay [2] it was above 100 µM; in [3], above 100 µM; in assay [4], above 100 µM; in assay [5] it was 69.5 µM; in [6], above 100 µM. Moreover, the TGI was above 100 µM in assay [7], 40.1 µM in assay [8] and above 100 µM in assay [9].
As for `Nc1ccc(N)c2c1C(=O)c1c(N)ccc(N)c1C2=O`, the TGI in assay [1], in [2], in assay [3], in assay [4], in assay [5] and in [6] was above 100 µM throughout. The TGI in assay [7], in [8] and in [9] was above 100 µM each time.
Consider `O=C(CSc1nnc(-c2ccc(N=Cc3ccc(Cl)cc3)cc2)o1)Nc1cccc(Cl)c1`, for which the TGI in assay [1], in assay [3], in assay [5], in assay [6], in assay [7] and in [8] was above 100 µM throughout. This compound showed a TGI in assay [9] above 100 µM.
For `OCSc1nn(CO)c(=S)s1`, the TGI in assay [10] is 59.6 µM; in [1] it was 38.2 µM; in [2], above 100 µM; in assay [3], 70.6 µM; in assay [5], 67.8 µM; in assay [6], 55.4 µM. For the same compound, the values for the TGI in [7], in assay [8] and in assay [9] were 37.8 µM, 54 µM and 59.6 µM, respectively.
For `COc1cc(C=O)c(-c2cc3c(cc2C=O)OCO3)c(OC)c1OC`, the TGI in [2] is above 290 µM; in assay [3], above 290 µM; in assay [5] it was above 290 µM; in assay [6], 131 µM; in assay [7], 279 µM; in assay [8] it was above 290 µM. In assay [9], this compound yielded a TGI above 290 µM.
Regarding `Cc1cc2c(c(N)c1C)C(=O)c1ccccc1C2=O`, the TGI in assay [1] was above 100 µM; in assay [2], above 100 µM; in [3], above 100 µM; in assay [4] it was 79 µM; in assay [5] it was above 100 µM; in assay [6], 50.4 µM. Also, the TGI in assay [7], in [8] and in [9] was above 100 µM throughout.
As to `O=c1[nH]c(=O)n(C2CC(O)C(CO)O2)cc1C#Cc1cc(F)cc(F)c1` (stereo not given), the TGI in [1], in assay [2], in assay [3], in assay [5], in assay [7] and in [9] was above 100 µM throughout.
Consider `CN(C)/C=N/c1nc2ncn(CCOC(=O)c3ccccc3)c2c(=O)[nH]1`, for which the TGI in [1], in [2], in [3], in assay [4], in assay [5] and in assay [6] was above 100 µM throughout. In addition, the TGI in [7] and in assay [8] was above 100 µM throughout.
`COc1ccc(C#CCC(OC2OC(CO)C(O)C(O)C2O)C(O)c2ccc(OC)c(OC)c2)cc1OC` (stereo not given): the TGI in assay [1], in [2], in [3], in assay [4], in assay [5] and in [6] was above 100 µM in each case. Further, the TGI in assay [7], in assay [8] and in assay [9] was above 100 µM in each case.
